Experimental data published in patent US20110190503A1, “Thiazolopyridin-2-yloxy-phenyl and thiazolopyrazin-2-yloxy-phenyl amines as modulators of leukotriene A4 hydrolase” (Janssen Pharmaceutical NV, priority 2008, published 2011).
Where a name gives a salt, the structure may show the parent alone.

Molecular target: T1, recombinant human LTA4 hydrolase (rhLTA4H) (Homo sapiens, UniProt P09960)
T1 construct: made in house; host or cells: Spodoptera frugiperda (Sf-9) cells, recombinant baculovirus (pFastBac1)
T1 sequence (P09960 1-611): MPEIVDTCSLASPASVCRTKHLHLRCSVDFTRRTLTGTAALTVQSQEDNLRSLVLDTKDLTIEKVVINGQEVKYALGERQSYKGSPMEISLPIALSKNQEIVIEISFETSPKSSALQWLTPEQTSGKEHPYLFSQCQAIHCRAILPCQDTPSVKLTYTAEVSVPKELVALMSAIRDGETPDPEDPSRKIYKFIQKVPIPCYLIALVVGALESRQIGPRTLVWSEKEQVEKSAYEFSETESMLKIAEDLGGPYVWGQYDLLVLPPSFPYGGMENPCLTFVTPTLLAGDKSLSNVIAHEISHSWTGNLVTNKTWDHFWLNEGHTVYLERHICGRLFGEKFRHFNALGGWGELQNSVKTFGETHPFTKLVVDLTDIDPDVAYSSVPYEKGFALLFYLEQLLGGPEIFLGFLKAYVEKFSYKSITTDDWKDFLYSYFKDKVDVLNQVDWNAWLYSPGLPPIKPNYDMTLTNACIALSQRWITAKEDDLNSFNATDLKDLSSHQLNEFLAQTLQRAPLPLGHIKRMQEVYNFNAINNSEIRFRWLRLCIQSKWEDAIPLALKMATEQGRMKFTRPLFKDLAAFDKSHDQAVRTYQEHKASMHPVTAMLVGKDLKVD
Experiment: Recombinant human LTA4 hydrolase assay for LTA4 hydrolase inhibitor activity
Assay type: biochemical
Conditions: rhLTA4H, LTA4 substrate, LTB4 by immunoassay; single determination or average; read-out: IC50
Experimental: Assay 1: Recombinant Human LTA4 Hydrolase Assay for LTA4 Hydrolase Inhibitor Activity
Compounds of the present invention were tested for LTA4 hydrolase inhibitor activity against recombinant human LTA4 hydrolase (rhLTA4H). Vectors were prepared and used to express rhLTA4H essentially as follows: LTA4 hydrolase encoding DNA was amplified by polymerase chain reaction (PCR) using a human placental cDNA library as a template. […] The amplified 1.9 kb DNA fragment encoding LTA4 hydrolase was isolated and cloned into the pFastBac1 vector (Invitrogen). Recombinant baculovirus was generated as described by the manufacturer, and used to infect Spodoptera frugiperda (Sf-9) cells. […] The purified enzyme solution was adjusted to contain 0.29 mg/mL LTA4 hydrolase, 50 mM Tris (pH 8.0), 150 mM NaCl, 5 mM dithiothreitol, 50% glycerol, and EDTA-free Complete protease inhibitor cocktail (Roche).
LTA4 substrate was prepared from the methyl ester of LTA4 (Cayman Chemical) by treatment with 67 equiv of NaOH under nitrogen at rt for 40 min. The LTA4 substrate in its free acid form was kept frozen at −80° C. until needed. Each compound was diluted to different concentrations in assay buffer (from Assay Designs) containing 10% DMSO. A 25-μL aliquot of each compound dilution was incubated for 10 min at rt with an equal volume of assay buffer containing 10 ng of recombinant human LTA4H. The solution was then adjusted to 200 μL with assay buffer. […] Each reaction was carried out at rt for 30 min. The reaction was stopped by diluting 10 μL of the reaction mixture with 200 μL of assay buffer. LTB4 was quantified in the diluted sample by a commercially available enzyme-linked immunoassay (Cayman Chemical Co.), as recommended by the manufacturer. Positive controls, under essentially identical conditions but without addition of an inhibitor compound, and negative controls, containing all assay components except enzyme, were routinely run in each experiment. IC50 values were determined by nonlinear regression of the activity data at different compound concentrations using Graphpad Prism 4.0, one site binding competition.
The values presented here are the result of a single determination or an average of two or more determinations, as indicated in parentheses following each value. For compounds tested three or more times, the average value is followed by the standard deviation

SMILES: Cc1ccnc2nc(Oc3ccc(CN4CCN(c5ccncc5)CC4)cc3)sc12 [Example 168, 7-Methyl-2-({4-[(4-pyridin-4-ylpiperazin-1-yl)methyl]phenyl}oxy)[1,3]thiazolo[4,5-b]pyridine]
- IC50: 647 nM

SMILES: c1cnc2sc(Oc3ccc(OCCN4CCOCC4)cc3)nc2n1 [Example 150, 2-[4-(2-Morpholin-4-ylethoxy)phenoxy][1,3]thiazolo[4,5-b]pyrazine]
- IC50: 602 nM

SMILES: NC(=O)C1CCN(CCOc2ccc(Oc3nc4cccnc4s3)cc2)CC1 [Example 35, 1-{2-[4-([1,3]Thiazolo[5,4-b]pyridin-2-yloxy)phenoxy]ethyl}piperidine-4-carboxamide]
- IC50: 350 nM

SMILES: CN1CCCN(CCOc2ccc(Oc3nc4cccnc4s3)cc2)CC1 [Example 152, 2-{4-[2-(4-Methyl-1,4-diazepan-1-yl)ethoxy]phenoxy}[1,3]thiazolo[5,4-b]pyridine]
- IC50: 498 nM

SMILES: CS(=O)(=O)N1CC2CN(Cc3ccc(Oc4nc5ncc(Cl)cc5s4)cc3)CC2C1 (centres unmarked) [Example 188, 6-Chloro-2-[(4-{[5-(methylsulfonyl)hexahydropyrrolo[3,4-c]pyrrol-2(1H)-yl]methyl}phenyl)oxy][1,3]thiazolo[4,5-b]pyridine]
- IC50: 50 nM

SMILES: Cc1ccnc2nc(Oc3ccc(OCCN4CCN(C(=O)c5ccncc5)CC4)cc3)sc12 [Example 143, 7-Methyl-2-(4-{2-[4-(pyridin-4-ylcarbonyl)piperazin-1-yl]ethoxy}phenoxy)[1,3]thiazolo[4,5-b]pyridine]
- IC50: 193 nM

SMILES: O=C(O)CCN1CCN(CCc2ccc(Oc3nc4ncccc4s3)cc2)CC1 [Example 225, 3-(4-{2-[4-([1,3]Thiazolo[4,5-b]pyridin-2-yloxy)phenyl]ethyl}piperazin-1-yl)propanoic acid hydrochloride]
- IC50: 21 nM

SMILES: NC(=O)C1CCN(CCc2ccc(Oc3nc4cccnc4s3)cc2)CC1 [Example 67, 1-{2-[4-([1,3]Thiazolo[5,4-b]pyridin-2-yloxy)phenyl]ethyl}piperidine-4-carboxamide]
- IC50: 190 nM

SMILES: Cc1cnc2nc(Oc3ccc(OCCN4CCC(NC(=O)C(C)C)CC4)cc3)sc2c1 [Example 140, 2-Methyl-N-[1-(2-{4-[(6-methyl[1,3]thiazolo[4,5-b]pyridin-2-yl)oxy]phenoxy}ethyl)piperidin-4-yl]propanamide]
- IC50: 138 nM

SMILES: CN1CCN(Cc2ccc(Oc3nc4cnccc4s3)cc2)CC1=O [Example 224, 1-Methyl-4-[4-([1,3]thiazolo[4,5-c]pyridin-2-yloxy)benzyl]piperazin-2-one]
- IC50: 4850 nM

SMILES: Clc1cnc2nc(Oc3ccc(CN4CCSCC4)cc3)sc2c1 [Example 189, 6-Chloro-2-{[4-(thiomorpholin-4-ylmethyl)phenyl]oxy}[1,3]thiazolo[4,5-b]pyridine]
- IC50: 308 nM

SMILES: CC(=O)N1C[C@@H]2C[C@H]1CN2Cc1ccc(Oc2nc3cc(F)cnc3s2)cc1 [Example 123, 2-(4-{[(1S,4S)-5-Acetyl-2,5-diazabicyclo[2.2.1]hept-2-yl]methyl}phenoxy)-6-fluoro[1,3]thiazolo[5,4-b]pyridine]
- IC50: 180 nM

SMILES: CS(=O)(=O)N[C@@H]1CC2CC[C@@H](C1)N2CCc1ccc(Oc2nc3cccnc3s2)cc1 [Example 194, meso-N-[(3-exo)-8-{2-[4-([1,3]Thiazolo[5,4-b]pyridin-2-yloxy)phenyl]ethyl}-8-azabicyclo[3.2.1]oct-3-yl]methanesulfonamide]
- IC50: 92 nM

SMILES: OCCCN(CCOc1ccc(Oc2nc3ccncc3s2)cc1)C1CC1 [Example 208, 3-(Cyclopropyl{2-[4-([1,3]thiazolo[5,4-c]pyridin-2-yloxy)phenoxy]ethyl}amino)propan-1-ol]
- IC50: 3900 nM

SMILES: CS(=O)(=O)N1C[C@H]2CC[C@@H](C1)N2CCOc1ccc(Oc2nc3ncccc3s2)cc1 [Example 213, meso-2-(4-{2-[3-(Methylsulfonyl)-3,8-diazabicyclo[3.2.1]oct-8-yl]ethoxy}phenoxy)[1,3]thiazolo[4,5-b]pyridine]
- IC50: 34 nM

SMILES: CN(CCCN1CCCC1=O)CCOc1ccc(Oc2nc3ncc(Cl)cc3s2)cc1 [Example 155, 1-{3-[(2-{4-[(6-Chloro[1,3]thiazolo[4,5-b]pyridin-2-yl)oxy]phenoxy}ethyl)(methyl)amino]propyl}pyrrolidin-2-one]
- IC50: 329 nM

SMILES: O=C(c1ccccn1)N1CCN(Cc2ccc(Oc3nc4ccncc4s3)cc2)CC1 [Example 217, 2-(4-{[4-(Pyridin-2-ylcarbonyl)piperazin-1-yl]methyl}phenoxy)[1,3]thiazolo[5,4-c]pyridine]
- IC50: 2510 nM

SMILES: COc1ccccc1C1CCN(CCOc2ccc(Oc3nc4cccnc4s3)cc2)CC1 [Example 41, 2-(4-{2-[4-(2-Methoxyphenyl)piperidin-1-yl]ethoxy}phenoxy)[1,3]thiazolo[5,4-b]pyridine]
- IC50: 340 nM

SMILES: O=C1CCCN1C1CCN(Cc2ccc(Oc3nc4cccnc4s3)cc2)CC1 [Example 112, 1-{1-[4-([1,3]Thiazolo[5,4-b]pyridin-2-yloxy)benzyl]piperidin-4-yl}pyrrolidin-2-one]
- IC50: 370 nM

SMILES: O=C1CCCN1C1CCN(CCc2ccc(Oc3nc4cccnc4s3)cc2)CC1 [Example 68, 1-(1-{2-[4-([1,3]Thiazolo[5,4-b]pyridin-2-yloxy)phenyl]ethyl}piperidin-4-yl)pyrrolidin-2-one]
- IC50: 280 nM

SMILES: O=C(c1ccc(Cl)cc1)C1CCN(CCc2ccc(Oc3nc4cnccc4s3)cc2)CC1 [Example 195, (4-Chlorophenyl)(1-{2-[4-([1,3]thiazolo[4,5-c]pyridin-2-yloxy)phenyl]ethyl}piperidin-4-yl)methanone]
- IC50: 1370 nM

SMILES: c1ccc(CC2CCN(CCOc3ccc(Oc4nc5nccnc5s4)cc3)CC2)cc1 [Example 23, 2-{4-[2-(4-Benzylpiperidin-1-yl)ethoxy]phenoxy}[1,3]thiazolo[4,5-b]pyrazine]
- IC50: 160 nM

SMILES: OC1(c2cccc(C(F)(F)F)c2)CCN(CCOc2ccc(Oc3nc4cccnc4s3)cc2)CC1 [Example 37, 1-{2-[4-([1,3]Thiazolo[5,4-b]pyridin-2-yloxy)phenoxy]ethyl}-4-[3-(trifluoromethyl)phenyl]piperidin-4-ol]
- IC50: 160 nM

SMILES: NC(=O)N[C@@H]1C[C@H]2CC[C@@H](C1)N2Cc1ccc(Oc2nc3nccnc3s2)cc1 [Example 199, meso-1-{(3-exo)-8-[4-([1,3]Thiazolo[4,5-b]pyrazin-2-yloxy)benzyl]-8-azabicyclo[3.2.1]oct-3-yl}urea]
- IC50: 42 nM

SMILES: NC(=O)N1C[C@@H]2C[C@H]1CN2CCc1ccc(Oc2nc3cccnc3s2)cc1 [Example 78, (1S,4S)-5-{2-[4-([1,3]Thiazolo[5,4-b]pyridin-2-yloxy)phenyl]ethyl}-2,5-diazabicyclo[2.2.1]heptane-2-carboxamide]
- IC50: 160 nM

SMILES: c1cnc(N2CCN(Cc3ccc(Oc4nc5nccnc5s4)cc3)CC2)nc1 [Example 167, 2-({4-[(4-Pyrimidin-2-ylpiperazin-1-yl)methyl]phenyl}oxy)[1,3]thiazolo[4,5-b]pyrazine]
- IC50: 432 nM

SMILES: O=C1CCN(CCc2ccc(Oc3nc4nccnc4s3)cc2)CCN1 [Example 177, 1-{2-[4-([1,3]Thiazolo[4,5-b]pyrazin-2-yloxy)phenyl]ethyl}-1,4-diazepan-5-one]
- IC50: 624 nM

SMILES: CNC(=O)C1CCN(CCOc2ccc(Oc3nc4nccc(C)c4s3)cc2)CC1 [Example 165, N-Methyl-1-[2-({4-[(7-methyl[1,3]thiazolo[4,5-b]pyridin-2-yl)oxy]phenyl}oxy)ethyl]piperidine-4-carboxamide]
- IC50: 53 nM

SMILES: Cc1cnc2nc(Oc3ccc(CN4CCC(C(=O)N(C)C)CC4)cc3)sc2c1 [Example 172, N,N-Dimethyl-1-({4-[(6-methyl[1,3]thiazolo[4,5-b]pyridin-2-yl)oxy]phenyl}methyl)piperidine-4-carboxamide]
- IC50: 26 nM
